Experimental data published in US20160338977A1, “METHODS AND KITS FOR TREATING DEPRESSION” (Janssen Pharmaceutica NV, priority 2015, published 2016).

How the values were obtained:
[1] = tested on: subjects with Treatment Resistant Depression (TRD); assay: MADRS total score, double-blind placebo-controlled intranasal induction study; type: in vivo, human; conditions: for Mean Differences (SE) from placebo, MADRS total score: Day 8, data from both Periods 1 and 2; for Estimated Differences from placebo, MADRS total score: best fit sigmoidal Emax model; for Least Square Mean Difference from Placebo, MADRS total score: change from baseline to Day 8, ANCOVA LOCF
Description: The subjects discussed in Examples 1 to 5 included adult men and women, 18 (or older if the minimum legal age of consent in the country in which the study is taking place is >18) to 64 years of age (inclusive), who meet diagnostic criteria for recurrent MDD or single-episode MDD, based upon clinical assessment.
This example was a 2-panel, doubly-randomized, double-blind, placebo-controlled, multicenter study. In both panels, each subject participated in a screening phase of up to 4 weeks and/or a double-blind treatment phase which includes two 1-week periods (Period 1 and Period 2).
Sixty-seven (67) subjects with Treatment Resistant Depression (TRD) were randomly assigned in a 3:1:1:1 ratio to 1 of the 4 treatment groups in Table 1.
All subjects self-administered the intranasal esketamine (28, 56, or 84 mg) or placebo on non-consecutive days. Each intranasal device contains 2 sprays and contain esketamine deliver 14 mg per spray, for a total of 28 mg per individual device (i.e., 2 sprays). […] Food was restricted for 8 hours before each administration of study drug and the drinking of fluids was restricted for at least 30 minutes before the first nasal spray.
In Period 2, 28 placebo subjects who were eligible for re-randomization at the end of Period 1 were randomly assigned to as noted in Table 1 in a 1:1:1:1 ratio. Subjects eligible for re-randomization had to have a QIDS-SR16 total score >11 at the end of Period 1. Central randomization was implemented in this study. Both randomizations were balanced using randomly permuted blocks and were stratified by study center. The randomization for Period 2 was also stratified by QIDS-SR16 score at the end of Period 1 (moderate=11-16; severe >16) Subjects who were randomly assigned to esketamine in Period 1 continued to receive esketamine in Period 2, while Period 1 placebo subjects with a QIDS-SR16 total score <11 continued with placebo in Period 2.
The Period 1 ITT analysis set consisted of all randomized subjects who received at least 1 dose of study medication during Period 1 and had both the baseline and at least one post baseline value for the primary endpoint measure, MADRS total score, within Period 1. The Period 2 ITT analysis set consisted of all Period 1 placebo subjects who were eligible for re-randomization (QIDS-SR16≧11 at end of Period 1), who actually got re-randomized into Period 2 and received at least 1 dose of study medication during Period 2, and had both the baseline and at least one post baseline MADRS total score within Period 2.
The MADRS consisted of 10 items that covered all of the core depressive symptoms (apparent sadness, reported sadness, inner tension, sleep, appetite, concentration, lassitude, interest level, pessimistic thoughts, and suicidal thoughts). Each item was scored from 0 (item is not present or is normal) to 6 (severe or continuous presence of the symptom). A total score (0 to 60) was calculated by summing the scores of all 10 items. A higher score represented a more severe condition. Sustained response (onset of clinical response) was defined as at least 50% improvement from baseline in the MADRS total score with an onset by Day 2 that was maintained to study Day 15. The primary efficacy endpoint was the change in MADRS total score from baseline to Day 8 in each period, with the analysis based on data combined across both periods. The primary efficacy analysis was performed on the intent-to-treat (ITT) analysis sets that were defined for each period, which included all randomized subjects who received at least 1 dose of study medication during that period and have both the baseline and at least one post baseline MADRS total score within that period. Significance was based on a one-sided alpha level of 0.05.
A separate ANCOVA model was performed on last observation carried forward (LOCF) data for each period. Changes from baseline in Period 1 were modeled with treatment as a factor and Period 1 baseline value as a covariate. […]

[2] = tested on: subjects with Treatment Resistant Depression (TRD); assay: Treatment emergent adverse events (TEAE) in the subjects of Example 1
Description: The treatment emergent adverse event (TEAE) side effects for the subjects of Example were obtained. See, Table 7.

[3] = tested on: subjects with Treatment Resistant Depression (TRD); assay: Clinician Administered Dissociative States Scale (CADSS); type: in vivo, human; conditions: post dose; intranasal
Experimental: The Clinician Administered Dissociative States Scale (CADSS) was measured prior to the start of each dose, at 40 minutes and at 2 hours post dose. The CADSS is used to assess treatment emergent dissociative symptoms and perceptual changes and the total score ranges from 0 to 92 with a higher score representing a more severe condition. […] See, FIG. 4.

[4] = tested on: NMDA receptor; conditions: compared with the R-enantiomer (arketamine); cited from earlier work

CN[C@]1(c2ccccc2Cl)CCCCC1=O.Cl [Esketamine, (S)-2-(2-chlorophenyl)-2-(methylamino)cyclohexanone hydrochloride]
statistical comparison with placebo, dose response model, MADRS total score ([1]; 14 mg (model estimate, dose not studied), 90% CI included 0): not statistically different from placebo
Mean Differences (SE) from placebo, MADRS total score ([1]; 28 mg): −4.2 (2.09)
Estimated Differences from placebo, MADRS total score ([1]; 28 mg): −4.22
statistical comparison with placebo, dose response model, MADRS total score ([1]; 28 mg, sigmoidal Emax model, 90% CI): statistically superior to placebo
Mean Differences (SE) from placebo, MADRS total score ([1]; 56 mg): −6.3 (2.07)
Estimated Differences from placebo, MADRS total score ([1]; 56 mg): −7.04
statistical comparison with placebo, dose response model, MADRS total score ([1]; 56 mg, sigmoidal Emax model, 90% CI): statistically superior to placebo
Mean Differences (SE) from placebo, MADRS total score ([1]; 84 mg): −9.0 (2.13)
Estimated Differences from placebo, MADRS total score ([1]; 84 mg): −8.45
statistical comparison with placebo, dose response model, MADRS total score ([1]; 84 mg, sigmoidal Emax model, 90% CI): statistically superior to placebo
Least Square Mean Difference from Placebo, MADRS total score ([1]; Period 1, 28 mg intranasal): −5.0
Least Square Mean Difference from Placebo, MADRS total score ([1]; Period 1, 56 mg intranasal): −7.6
Least Square Mean Difference from Placebo, MADRS total score ([1]; Period 1, 84 mg intranasal): −10.5
Least Square Mean Difference from Placebo, MADRS total score ([1]; Period 2, 28 mg intranasal): −3.1
Least Square Mean Difference from Placebo, MADRS total score ([1]; Period 2, 56 mg intranasal): −4.4
Least Square Mean Difference from Placebo, MADRS total score ([1]; Period 2, 84 mg intranasal): −6.9
statistical comparison with placebo, MADRS total score ([1]; all three groups (28, 56, 84 mg), Period 1 and Period 2 combined, weighted combination test, one-sided 0.05): statistically superior to placebo
Estimated Differences from placebo, MADRS total score ([1]; dose cell blank (14 mg per text, dose not studied)): −1.98
Patients Experiencing on TEAE ([2]; Period 1, 28 mg intranasal): 73
Patients Experiencing on TEAE ([2]; Period 1, 56 mg intranasal): 82
Patients Experiencing on TEAE ([2]; Period 1, 84 mg intranasal): 83
Patients Experiencing on TEAE ([2]; Period 2, 28 mg intranasal): 38
Patients Experiencing on TEAE ([2]; Period 2, 56 mg intranasal): 78
Patients Experiencing on TEAE ([2]; Period 2, 84 mg intranasal): 100
subjects who experienced at least one TEAE ([2]; overall, esketamine in either Period 1 or Period 2): about 79%
time of peak of dissociative and perceptual change symptoms (CADSS) [3]: ≤ 40 min
time to resolution of dissociative and perceptual change symptoms (CADSS) [3]: ≤ 2 h
potency or affinity for the NMDA receptor [4]: higher potency or affinity
